Measured values: ChEMBL document CHEMBL1201862, “PubChem BioAssay data set” (2004)
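In this assay, cells in 96-well plates receive the compound at five concentrations for 48 hours. Endpoints are linearly interpolated between the surrounding concentrations. GI50: concentration for 50% inhibition of growth.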 Active and inactive are the calls of the source. Cut-off read from the data, not from the text of the source: active = GI50 up to about 1.1 µM and inactive = higher.

Columns and labels:
Assay in all cases: NCI tumour cell line growth inhibition, 48 h
A498 = tested on: A498
HL-60 = tested on: HL-60
HCC 2998 = tested on: HCC 2998
MCF7 = tested on: MCF7
SK-OV-3 = tested on: SK-OV-3
PC-3 = tested on: PC-3
NCI-H23 = tested on: NCI-H23
SK-MEL-2 = tested on: SK-MEL-2
HCT-116 = tested on: HCT-116
DU-145 = tested on: DU-145
SNB-75 = tested on: SNB-75
K562 = tested on: K562
MOLT-4 = tested on: MOLT-4
HOP-92 = tested on: HOP-92
RXF 393 = tested on: RXF 393
HT-29 = tested on: HT-29
COLO 205 = tested on: COLO 205
SR = tested on: SR

SMILES	GI50 (A498)	GI50 (HL-60)	GI50 (HCC 2998)	GI50 (MCF7)	GI50 (SK-OV-3)	GI50 (PC-3)	GI50 (NCI-H23)	GI50 (SK-MEL-2)	GI50 (HCT-116)	GI50 (DU-145)	GI50 (SNB-75)	GI50 (K562)	GI50 (MOLT-4)	GI50 (HOP-92)	GI50 (RXF 393)	GI50 (HT-29)	GI50 (COLO 205)	GI50 (SR)
CN(C)Cc1cc(O)c(O)c(CN(C)C)c1	> 100 µM (inactive)	24.8 µM (inactive)	29 µM (inactive)	39.6 µM (inactive)	54.1 µM (inactive)	48.8 µM (inactive)	37 µM (inactive)	37.2 µM (inactive)	41.3 µM (inactive)	35.9 µM (inactive)	56.6 µM (inactive)	33 µM (inactive)	27.9 µM (inactive)	> 100 µM (inactive)	50.4 µM (inactive)	40.2 µM (inactive)	34.7 µM (inactive)	
O=C(NN1C(=O)CS(=O)(=O)C1c1ccc(C(F)(F)F)cc1)c1ccncc1 (stereo unspecified)	> 100 µM (inactive)	> 100 µM (inactive)	> 100 µM (inactive)		> 100 µM (inactive)		> 100 µM (inactive)	> 100 µM (inactive)	> 100 µM (inactive)		> 100 µM (inactive)		> 100 µM (inactive)	> 100 µM (inactive)	> 100 µM (inactive)	> 100 µM (inactive)	> 100 µM (inactive)	> 100 µM (inactive)
O=C(Nc1sccc1S(=O)(=O)c1ccccc1)c1ccccc1	> 100 µM (inactive)		> 100 µM (inactive)	> 100 µM (inactive)	> 100 µM (inactive)	> 100 µM (inactive)	> 100 µM (inactive)	> 100 µM (inactive)	> 100 µM (inactive)	> 100 µM (inactive)	> 100 µM (inactive)	1.91 µM (inactive)	> 100 µM (inactive)	> 100 µM (inactive)		> 31.6 µM (inactive)	> 88.1 µM (inactive)	
Cc1oc2nc(N(C)C)n3c(C)nnc3c2c1C	> 100 µM (inactive)		> 100 µM (inactive)	> 100 µM (inactive)	> 100 µM (inactive)		> 100 µM (inactive)		> 100 µM (inactive)	> 100 µM (inactive)	> 100 µM (inactive)	> 100 µM (inactive)	> 100 µM (inactive)	> 100 µM (inactive)	> 100 µM (inactive)	> 100 µM (inactive)	> 100 µM (inactive)	> 100 µM (inactive)
COC(=O)CN1CCN(c2cccc3c2CCCC3)CC1	> 100 µM (inactive)	35.2 µM (inactive)	29.6 µM (inactive)	37 µM (inactive)		64.6 µM (inactive)	13.9 µM (inactive)	> 100 µM (inactive)	32.4 µM (inactive)		43.6 µM (inactive)	90.2 µM (inactive)	44.5 µM (inactive)	0.0248 µM (active)	> 100 µM (inactive)	18.2 µM (inactive)	29.2 µM (inactive)	35.5 µM (inactive)
CCOC(=O)C1=CC(C)(C(=O)OCC)Nc2c(nc(OC)n(C)c2=O)N1 (stereo unspecified)	> 10 µM (inactive)		> 10 µM (inactive)	> 10 µM (inactive)	> 10 µM (inactive)	> 10 µM (inactive)	> 10 µM (inactive)	> 10 µM (inactive)	> 10 µM (inactive)	> 10 µM (inactive)	> 10 µM (inactive)	> 10 µM (inactive)	> 10 µM (inactive)	> 10 µM (inactive)	> 10 µM (inactive)	> 10 µM (inactive)	> 10 µM (inactive)	
CNC1NC(=O)c2ccccc2N1Cc1ccc(F)cc1 (stereo unspecified)	> 100 µM (inactive)	> 100 µM (inactive)	> 100 µM (inactive)	> 100 µM (inactive)	> 100 µM (inactive)	> 100 µM (inactive)	> 100 µM (inactive)	> 100 µM (inactive)	> 100 µM (inactive)	> 100 µM (inactive)	> 100 µM (inactive)	> 100 µM (inactive)	> 100 µM (inactive)	> 100 µM (inactive)	> 100 µM (inactive)	> 100 µM (inactive)	> 100 µM (inactive)	
COc1ccc(-c2nc(Nc3ccccc3)sc2Cc2sc(Nc3ccccc3)nc2-c2ccc(OC)cc2)cc1	25.2 µM (inactive)	0.787 µM (active)	> 100 µM (inactive)	8.05 µM (inactive)	> 100 µM (inactive)		37.7 µM (inactive)		43.4 µM (inactive)	> 100 µM (inactive)	> 100 µM (inactive)	5.18 µM (inactive)	12.6 µM (inactive)		4.35 µM (inactive)	70.6 µM (inactive)	7.57 µM (inactive)	26 µM (inactive)
CC(=O)OCCn1c(Cc2ccc(Cl)cc2)nn(C(C)=O)c1=O	> 100 µM (inactive)	> 100 µM (inactive)	> 100 µM (inactive)	> 100 µM (inactive)	> 100 µM (inactive)	> 100 µM (inactive)	> 100 µM (inactive)	> 100 µM (inactive)	> 100 µM (inactive)	> 100 µM (inactive)		> 100 µM (inactive)	> 100 µM (inactive)	> 100 µM (inactive)		> 100 µM (inactive)	> 100 µM (inactive)	
O=c1nc2n(cc1/C=C\Br)C1CC(O)C(CO2)O1 (stereo unspecified)	49.9 µM (inactive)	0.792 µM (active)	> 100 µM (inactive)	> 100 µM (inactive)	> 100 µM (inactive)		> 100 µM (inactive)		> 100 µM (inactive)	> 100 µM (inactive)	> 100 µM (inactive)	5.16 µM (inactive)	> 100 µM (inactive)		25 µM (inactive)	> 100 µM (inactive)	> 100 µM (inactive)	
CC1=CC(C2/C(=N/O)C=C(C)CC2(C)C)C(O)C(C)(C)C1 (stereo unspecified)	18 µM (inactive)	16 µM (inactive)	14.1 µM (inactive)	15.3 µM (inactive)	17.9 µM (inactive)	16.1 µM (inactive)	16.2 µM (inactive)	16 µM (inactive)	15.7 µM (inactive)	15 µM (inactive)	14.8 µM (inactive)	14.2 µM (inactive)	13.5 µM (inactive)	14.1 µM (inactive)	15.3 µM (inactive)	14.3 µM (inactive)	17.1 µM (inactive)	
CN1C(=O)NC(=O)/C(=C\Nc2ncccn2)C1=O	> 100 µM (inactive)	> 100 µM (inactive)		> 100 µM (inactive)	> 100 µM (inactive)	> 100 µM (inactive)	> 100 µM (inactive)	> 100 µM (inactive)	> 100 µM (inactive)	> 100 µM (inactive)	> 100 µM (inactive)		> 100 µM (inactive)	> 100 µM (inactive)		> 100 µM (inactive)	> 100 µM (inactive)	
NC1=C(N2CCOCC2)C(=O)NC2=N/C(=C\c3ccccc3O)C(=O)N21	> 100 µM (inactive)	41.6 µM (inactive)	95.7 µM (inactive)	> 100 µM (inactive)	> 100 µM (inactive)		> 100 µM (inactive)		> 100 µM (inactive)	> 100 µM (inactive)	> 100 µM (inactive)	52.2 µM (inactive)	31.6 µM (inactive)	51.8 µM (inactive)	> 100 µM (inactive)	> 100 µM (inactive)	> 100 µM (inactive)	35.6 µM (inactive)
CC(C)CCn1nc(N)c2nc3ccccc3nc21	> 100 µM (inactive)	41.6 µM (inactive)	> 100 µM (inactive)	72.8 µM (inactive)	> 100 µM (inactive)	> 100 µM (inactive)	> 100 µM (inactive)	> 100 µM (inactive)	56 µM (inactive)		> 100 µM (inactive)	57.1 µM (inactive)	26.3 µM (inactive)	> 100 µM (inactive)	> 100 µM (inactive)	64.7 µM (inactive)		15.2 µM (inactive)
CCCCCCCCCCCCCCCCOCC(CC(F)(F)P(=O)(OCC)OCC)OC(C)=O (stereo unspecified)	12.5 µM (inactive)		8.69 µM (inactive)	15.8 µM (inactive)	19.6 µM (inactive)	13.8 µM (inactive)	16.9 µM (inactive)	19.6 µM (inactive)	3.17 µM (inactive)	15.4 µM (inactive)	17.5 µM (inactive)	14.1 µM (inactive)	28.1 µM (inactive)	10.3 µM (inactive)	23.8 µM (inactive)	14.9 µM (inactive)	18.2 µM (inactive)	
O=C(NC(CO)CO)c1ccc2cc(C(=O)N3CC(CCl)c4ccc([N+](=O)[O-])cc43)[nH]c2c1 (stereo unspecified)		> 100 µM (inactive)	> 100 µM (inactive)	> 100 µM (inactive)	> 100 µM (inactive)	> 100 µM (inactive)	> 100 µM (inactive)	> 100 µM (inactive)	> 100 µM (inactive)	> 100 µM (inactive)	> 100 µM (inactive)	> 100 µM (inactive)	> 100 µM (inactive)	> 100 µM (inactive)	> 100 µM (inactive)	> 100 µM (inactive)	50 µM (inactive)	
COc1ccc(OC)c2c1C1CCC(=O)N1CN2C(C)=O (stereo unspecified)	> 100 µM (inactive)	> 100 µM (inactive)	> 100 µM (inactive)	> 100 µM (inactive)	> 100 µM (inactive)	> 100 µM (inactive)	> 100 µM (inactive)	> 100 µM (inactive)	> 100 µM (inactive)	> 100 µM (inactive)	> 100 µM (inactive)	> 100 µM (inactive)	> 100 µM (inactive)	> 100 µM (inactive)	> 100 µM (inactive)	> 100 µM (inactive)	> 100 µM (inactive)	
